One test addresses T1, TGF-beta receptor type-1 (Homo sapiens) (UniProt P36897).
T1 sequence (whole entry): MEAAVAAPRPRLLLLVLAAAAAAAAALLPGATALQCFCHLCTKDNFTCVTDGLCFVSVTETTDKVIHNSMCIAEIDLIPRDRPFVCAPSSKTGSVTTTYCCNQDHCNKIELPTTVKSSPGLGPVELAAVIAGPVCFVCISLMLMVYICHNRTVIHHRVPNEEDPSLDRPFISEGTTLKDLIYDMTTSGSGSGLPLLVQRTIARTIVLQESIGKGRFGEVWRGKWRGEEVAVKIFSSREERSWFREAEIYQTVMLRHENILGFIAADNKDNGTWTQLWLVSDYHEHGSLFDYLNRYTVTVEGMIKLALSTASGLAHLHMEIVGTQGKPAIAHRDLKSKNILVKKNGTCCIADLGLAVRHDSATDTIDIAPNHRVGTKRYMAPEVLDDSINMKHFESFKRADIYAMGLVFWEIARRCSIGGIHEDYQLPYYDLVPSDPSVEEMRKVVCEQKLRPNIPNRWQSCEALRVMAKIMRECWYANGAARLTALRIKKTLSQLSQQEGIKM
Briefly: Inhibition of human TGFBR1 assessed as residual activity at 1 uM relative to control.
Sequence of Vascular endothelial growth factor receptor 1 (Homo sapiens) (P17948 whole entry): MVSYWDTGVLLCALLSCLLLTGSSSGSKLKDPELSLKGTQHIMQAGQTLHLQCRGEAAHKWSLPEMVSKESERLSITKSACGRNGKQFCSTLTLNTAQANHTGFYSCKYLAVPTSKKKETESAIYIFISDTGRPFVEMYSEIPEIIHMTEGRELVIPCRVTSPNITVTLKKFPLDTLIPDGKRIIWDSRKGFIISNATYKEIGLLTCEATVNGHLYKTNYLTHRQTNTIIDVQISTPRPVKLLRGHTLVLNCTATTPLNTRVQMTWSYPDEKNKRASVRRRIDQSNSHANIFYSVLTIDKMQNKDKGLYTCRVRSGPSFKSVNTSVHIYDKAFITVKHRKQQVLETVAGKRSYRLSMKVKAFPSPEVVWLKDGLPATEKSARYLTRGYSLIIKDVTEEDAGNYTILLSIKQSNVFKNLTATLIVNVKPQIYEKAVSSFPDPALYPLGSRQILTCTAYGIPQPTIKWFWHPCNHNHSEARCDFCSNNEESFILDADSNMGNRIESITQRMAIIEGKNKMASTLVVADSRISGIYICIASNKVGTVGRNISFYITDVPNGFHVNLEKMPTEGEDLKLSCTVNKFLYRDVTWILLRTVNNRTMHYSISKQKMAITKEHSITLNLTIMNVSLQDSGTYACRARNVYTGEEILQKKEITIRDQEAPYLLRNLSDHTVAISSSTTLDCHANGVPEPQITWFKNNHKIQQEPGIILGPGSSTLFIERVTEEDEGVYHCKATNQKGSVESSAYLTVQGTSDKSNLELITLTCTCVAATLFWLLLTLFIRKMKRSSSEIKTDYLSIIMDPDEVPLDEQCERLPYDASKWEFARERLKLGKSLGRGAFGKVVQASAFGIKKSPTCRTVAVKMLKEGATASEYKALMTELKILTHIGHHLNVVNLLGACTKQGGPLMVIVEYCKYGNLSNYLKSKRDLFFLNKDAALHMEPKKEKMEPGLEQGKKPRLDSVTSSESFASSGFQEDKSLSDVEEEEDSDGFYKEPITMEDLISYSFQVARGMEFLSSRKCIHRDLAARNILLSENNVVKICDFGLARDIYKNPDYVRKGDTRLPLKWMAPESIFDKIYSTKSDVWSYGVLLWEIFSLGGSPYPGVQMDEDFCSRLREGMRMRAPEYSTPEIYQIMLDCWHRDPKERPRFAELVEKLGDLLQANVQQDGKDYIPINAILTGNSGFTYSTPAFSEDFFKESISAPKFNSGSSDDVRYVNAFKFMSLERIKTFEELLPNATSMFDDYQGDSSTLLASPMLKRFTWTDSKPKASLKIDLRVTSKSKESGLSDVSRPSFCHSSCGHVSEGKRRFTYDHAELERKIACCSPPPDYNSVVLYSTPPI
Sequence of Mitogen-activated protein kinase kinase kinase 9 (Homo sapiens) (P80192 whole entry, looked up): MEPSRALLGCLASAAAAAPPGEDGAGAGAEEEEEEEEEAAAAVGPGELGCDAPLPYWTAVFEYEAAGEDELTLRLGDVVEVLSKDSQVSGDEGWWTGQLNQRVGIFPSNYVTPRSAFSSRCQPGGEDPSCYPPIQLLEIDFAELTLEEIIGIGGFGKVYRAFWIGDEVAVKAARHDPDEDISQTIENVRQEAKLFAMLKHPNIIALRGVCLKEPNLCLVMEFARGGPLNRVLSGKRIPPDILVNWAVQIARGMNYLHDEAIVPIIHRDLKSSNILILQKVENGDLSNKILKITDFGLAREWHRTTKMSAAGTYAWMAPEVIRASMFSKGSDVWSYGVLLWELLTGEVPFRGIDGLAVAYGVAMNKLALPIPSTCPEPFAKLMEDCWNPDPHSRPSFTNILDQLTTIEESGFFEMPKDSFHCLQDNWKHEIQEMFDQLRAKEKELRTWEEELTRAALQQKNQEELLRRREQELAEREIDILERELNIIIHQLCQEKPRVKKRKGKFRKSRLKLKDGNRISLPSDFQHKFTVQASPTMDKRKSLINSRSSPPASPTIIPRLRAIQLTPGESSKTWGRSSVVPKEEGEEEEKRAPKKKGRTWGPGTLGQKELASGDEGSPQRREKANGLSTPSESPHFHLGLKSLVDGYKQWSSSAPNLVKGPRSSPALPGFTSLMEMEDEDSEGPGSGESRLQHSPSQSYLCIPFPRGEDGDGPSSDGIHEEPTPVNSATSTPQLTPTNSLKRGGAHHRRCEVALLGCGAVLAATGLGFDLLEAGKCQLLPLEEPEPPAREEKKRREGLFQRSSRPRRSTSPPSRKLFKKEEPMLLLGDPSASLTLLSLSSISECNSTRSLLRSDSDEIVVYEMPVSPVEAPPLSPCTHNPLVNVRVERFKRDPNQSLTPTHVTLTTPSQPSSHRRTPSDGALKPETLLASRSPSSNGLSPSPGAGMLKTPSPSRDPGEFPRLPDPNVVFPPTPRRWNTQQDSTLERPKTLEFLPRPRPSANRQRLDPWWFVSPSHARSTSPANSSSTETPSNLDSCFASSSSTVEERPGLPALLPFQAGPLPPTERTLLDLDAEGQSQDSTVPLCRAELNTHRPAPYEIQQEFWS
For the compound `COc1ccc(-c2nc3cc(-c4csc(C(=O)NCCC(C)C)c4)cnc3[nH]2)cc1`, the Activity stood at 85%.
On the same count and under the same terms, as for `COc1ccc(-c2nc3cc(-c4csc(C(=O)NCC(C)(C)C)c4)cnc3[nH]2)cc1`, the figure is 111%; as for `COc1ccc(-c2nc3cc(-c4csc(C(=O)NCC(C)C)c4)cnc3[nH]2)cc1`, 104%.

For another test, the target named is T2, Serine/threonine-protein kinase Sgk1 (Homo sapiens) (UniProt O00141).
T2 sequence (whole entry): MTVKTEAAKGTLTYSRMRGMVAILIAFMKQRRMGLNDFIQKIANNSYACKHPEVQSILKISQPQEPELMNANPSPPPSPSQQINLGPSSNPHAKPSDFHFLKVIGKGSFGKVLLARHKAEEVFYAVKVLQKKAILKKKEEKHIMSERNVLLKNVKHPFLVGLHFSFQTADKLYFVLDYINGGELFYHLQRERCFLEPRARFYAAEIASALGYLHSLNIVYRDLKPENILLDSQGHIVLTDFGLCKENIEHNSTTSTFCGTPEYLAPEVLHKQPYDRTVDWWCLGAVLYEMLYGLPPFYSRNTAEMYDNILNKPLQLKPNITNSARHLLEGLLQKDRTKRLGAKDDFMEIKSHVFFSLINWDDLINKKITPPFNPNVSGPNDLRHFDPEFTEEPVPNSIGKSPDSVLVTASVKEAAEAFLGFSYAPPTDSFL
Briefly: Inhibition of human SGK assessed as residual activity at 1 uM relative to control.
In the case of `COc1ccc(-c2nc3cc(-c4csc(C(=O)NCCC(C)C)c4)cnc3[nH]2)cc1`, the Activity came out at 78%.
As for `COc1ccc(-c2nc3cc(-c4csc(C(=O)NCC(C)(C)C)c4)cnc3[nH]2)cc1`, the Activity was determined as 82%.
The same measure, in the same setting: then `COc1ccc(-c2nc3cc(-c4csc(C(=O)NCC(C)C)c4)cnc3[nH]2)cc1`, with 102%.

Another test addresses Mitogen-activated protein kinase kinase kinase 9 (Homo sapiens) (UniProt P80192). Briefly: Inhibition of human MLK1 assessed as residual activity at 1 uM relative to control.
Turning to `COc1ccc(-c2nc3cc(-c4csc(C(=O)NCCC(C)C)c4)cnc3[nH]2)cc1`, the Activity was determined as 23%.
For `COc1ccc(-c2nc3cc(-c4csc(C(=O)NCC(C)(C)C)c4)cnc3[nH]2)cc1`, the Activity was determined as 37%.
Same read-out and setting: then `COc1ccc(-c2nc3cc(-c4csc(C(=O)NCC(C)C)c4)cnc3[nH]2)cc1`, with 30%.

The target in another test is Insulin receptor (Homo sapiens) (UniProt P06213). Briefly: Inhibition of human activated IR assessed as residual activity at 1 uM relative to control.
Regarding `COc1ccc(-c2nc3cc(-c4csc(C(=O)NCCC(C)C)c4)cnc3[nH]2)cc1`, the Activity is 100%.
The same measure, in the same setting: as for `COc1ccc(-c2nc3cc(-c4csc(C(=O)NCC(C)(C)C)c4)cnc3[nH]2)cc1`, the figure is 96%; as for `COc1ccc(-c2nc3cc(-c4csc(C(=O)NCC(C)C)c4)cnc3[nH]2)cc1`, 109%.

Another test addresses T3, Myotonin-protein kinase (Homo sapiens) (UniProt Q09013).
T3 sequence (whole entry): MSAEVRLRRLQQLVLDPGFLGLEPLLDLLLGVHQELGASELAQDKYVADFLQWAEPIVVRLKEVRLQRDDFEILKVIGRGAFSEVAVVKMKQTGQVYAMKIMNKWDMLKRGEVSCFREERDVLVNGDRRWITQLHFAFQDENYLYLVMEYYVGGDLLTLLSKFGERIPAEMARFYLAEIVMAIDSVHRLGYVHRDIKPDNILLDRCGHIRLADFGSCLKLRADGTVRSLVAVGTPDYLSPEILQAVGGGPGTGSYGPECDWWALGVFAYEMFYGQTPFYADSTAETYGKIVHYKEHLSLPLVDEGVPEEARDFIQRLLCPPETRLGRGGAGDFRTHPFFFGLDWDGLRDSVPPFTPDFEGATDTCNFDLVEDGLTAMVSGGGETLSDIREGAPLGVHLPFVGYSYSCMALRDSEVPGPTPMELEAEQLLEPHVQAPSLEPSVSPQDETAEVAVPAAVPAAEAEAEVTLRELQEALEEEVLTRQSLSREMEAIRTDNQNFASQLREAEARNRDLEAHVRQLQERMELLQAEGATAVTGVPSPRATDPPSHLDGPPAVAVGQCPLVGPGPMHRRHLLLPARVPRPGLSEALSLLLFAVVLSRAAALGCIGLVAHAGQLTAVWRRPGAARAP
Description: Inhibition of human DMPK assessed as residual activity at 1 uM relative to control.
On to `COc1ccc(-c2nc3cc(-c4csc(C(=O)NCCC(C)C)c4)cnc3[nH]2)cc1`, for which the Activity was determined as 100%.
The same measure, in the same setting: as for `COc1ccc(-c2nc3cc(-c4csc(C(=O)NCC(C)(C)C)c4)cnc3[nH]2)cc1`, the figure is 104%.
Still for that read-out and setting: then `COc1ccc(-c2nc3cc(-c4csc(C(=O)NCC(C)C)c4)cnc3[nH]2)cc1`, with 97%.

The next test has as its target T4, Dual specificity tyrosine-phosphorylation-regulated kinase 2 (Homo sapiens) (UniProt Q92630).
T4 sequence (whole entry): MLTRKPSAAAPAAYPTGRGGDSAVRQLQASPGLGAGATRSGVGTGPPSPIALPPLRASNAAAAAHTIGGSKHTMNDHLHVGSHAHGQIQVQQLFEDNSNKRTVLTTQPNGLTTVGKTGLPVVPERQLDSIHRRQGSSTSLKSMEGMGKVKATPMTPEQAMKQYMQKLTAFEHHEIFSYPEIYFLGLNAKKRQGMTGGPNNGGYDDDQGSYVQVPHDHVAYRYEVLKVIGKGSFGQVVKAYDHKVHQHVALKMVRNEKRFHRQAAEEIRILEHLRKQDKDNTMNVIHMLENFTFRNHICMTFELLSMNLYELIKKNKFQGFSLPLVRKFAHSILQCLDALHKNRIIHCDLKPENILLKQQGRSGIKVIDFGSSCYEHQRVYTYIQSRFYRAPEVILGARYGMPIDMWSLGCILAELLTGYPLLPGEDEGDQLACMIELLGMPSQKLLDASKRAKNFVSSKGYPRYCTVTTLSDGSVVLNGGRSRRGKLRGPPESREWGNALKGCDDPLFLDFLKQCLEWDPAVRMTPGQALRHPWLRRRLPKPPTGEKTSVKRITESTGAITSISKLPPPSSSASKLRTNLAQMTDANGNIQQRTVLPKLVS
Briefly: Inhibition of human DYRK2 assessed as residual activity at 1 uM relative to control.
With `COc1ccc(-c2nc3cc(-c4csc(C(=O)NCCC(C)C)c4)cnc3[nH]2)cc1`, the Activity amounted to 11%.
Same read-out and setting: as for `COc1ccc(-c2nc3cc(-c4csc(C(=O)NCC(C)(C)C)c4)cnc3[nH]2)cc1`, the figure is 30%.
For the compound `COc1ccc(-c2nc3cc(-c4csc(C(=O)NCC(C)C)c4)cnc3[nH]2)cc1`, the Activity stood at 20%.

A further test concerns the target 5'-AMP-activated protein kinase catalytic subunit alpha-2 (Homo sapiens) (UniProt P54646). Briefly: Inhibition of human AMPKalpha2 assessed as residual activity at 1 uM relative to control.
For the compound `COc1ccc(-c2nc3cc(-c4csc(C(=O)NCCC(C)C)c4)cnc3[nH]2)cc1`, the Activity was determined as 42%.
With `COc1ccc(-c2nc3cc(-c4csc(C(=O)NCC(C)(C)C)c4)cnc3[nH]2)cc1`, the Activity stood at 46%.
As to `COc1ccc(-c2nc3cc(-c4csc(C(=O)NCC(C)C)c4)cnc3[nH]2)cc1`, the Activity was 28%.

For the next test, the target named is Tyrosine-protein kinase JAK2 (Homo sapiens) (UniProt O60674). Description: Inhibition of human JAK2 assessed as residual activity at 1 uM relative to control.
Sequence of Tyrosine-protein kinase JAK2 (Homo sapiens) (O60674 whole entry): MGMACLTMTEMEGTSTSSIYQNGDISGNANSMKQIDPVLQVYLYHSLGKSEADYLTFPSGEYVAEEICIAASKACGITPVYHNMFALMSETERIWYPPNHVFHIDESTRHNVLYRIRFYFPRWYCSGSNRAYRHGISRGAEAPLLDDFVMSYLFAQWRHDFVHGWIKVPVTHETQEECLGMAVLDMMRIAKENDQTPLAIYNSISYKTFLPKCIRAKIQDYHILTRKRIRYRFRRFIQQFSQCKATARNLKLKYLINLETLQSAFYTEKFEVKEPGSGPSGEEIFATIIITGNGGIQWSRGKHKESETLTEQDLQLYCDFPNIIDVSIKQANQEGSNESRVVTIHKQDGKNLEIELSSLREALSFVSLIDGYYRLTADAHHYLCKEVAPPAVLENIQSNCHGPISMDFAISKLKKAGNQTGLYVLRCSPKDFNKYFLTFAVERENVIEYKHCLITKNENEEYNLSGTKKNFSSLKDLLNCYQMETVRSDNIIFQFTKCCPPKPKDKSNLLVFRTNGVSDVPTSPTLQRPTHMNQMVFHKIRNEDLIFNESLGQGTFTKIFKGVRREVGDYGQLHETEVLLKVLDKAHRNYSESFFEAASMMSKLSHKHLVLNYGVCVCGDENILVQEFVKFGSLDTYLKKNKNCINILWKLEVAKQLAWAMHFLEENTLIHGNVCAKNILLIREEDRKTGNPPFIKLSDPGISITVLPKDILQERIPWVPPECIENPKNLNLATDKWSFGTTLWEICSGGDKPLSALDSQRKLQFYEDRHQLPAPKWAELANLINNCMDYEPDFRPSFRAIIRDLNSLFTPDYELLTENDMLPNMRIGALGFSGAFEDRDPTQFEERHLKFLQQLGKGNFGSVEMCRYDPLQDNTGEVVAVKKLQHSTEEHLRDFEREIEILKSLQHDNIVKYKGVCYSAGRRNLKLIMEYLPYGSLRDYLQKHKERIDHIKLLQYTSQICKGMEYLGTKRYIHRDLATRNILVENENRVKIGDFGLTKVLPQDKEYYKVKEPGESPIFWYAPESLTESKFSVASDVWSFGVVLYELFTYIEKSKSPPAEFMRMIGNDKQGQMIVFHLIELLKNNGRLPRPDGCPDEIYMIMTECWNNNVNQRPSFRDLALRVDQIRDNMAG
As to `COc1ccc(-c2nc3cc(-c4csc(C(=O)NCCC(C)C)c4)cnc3[nH]2)cc1`, the Activity was found to be 100%.
Still for that read-out and setting: as for `COc1ccc(-c2nc3cc(-c4csc(C(=O)NCC(C)(C)C)c4)cnc3[nH]2)cc1`, the figure is 105%.
On the same count and under the same terms, then `COc1ccc(-c2nc3cc(-c4csc(C(=O)NCC(C)C)c4)cnc3[nH]2)cc1`, with 108%.

Another test concerns the target Vascular endothelial growth factor receptor 1 (Homo sapiens) (UniProt P17948). Description: Inhibition of human FLT1 assessed as residual activity at 1 uM relative to control.
For the compound `COc1ccc(-c2nc3cc(-c4csc(C(=O)NCCC(C)C)c4)cnc3[nH]2)cc1`, the Activity turned out to be 22%.
On the same count and under the same terms, as for `COc1ccc(-c2nc3cc(-c4csc(C(=O)NCC(C)(C)C)c4)cnc3[nH]2)cc1`, the figure is 24%; as for `COc1ccc(-c2nc3cc(-c4csc(C(=O)NCC(C)C)c4)cnc3[nH]2)cc1`, 10%.

A further test concerns the target Glycogen synthase kinase-3 alpha (Homo sapiens) (UniProt P49840). Description: Inhibition of human GSK3alpha assessed as residual activity at 1 uM relative to control.
For `COc1ccc(-c2nc3cc(-c4csc(C(=O)NCCC(C)C)c4)cnc3[nH]2)cc1`, the Activity was 102%.
Same read-out and setting: then `COc1ccc(-c2nc3cc(-c4csc(C(=O)NCC(C)(C)C)c4)cnc3[nH]2)cc1`, with 95%.
`COc1ccc(-c2nc3cc(-c4csc(C(=O)NCC(C)C)c4)cnc3[nH]2)cc1`: the Activity worked out at 92%.

The target in the next test is Tyrosine-protein kinase Fes/Fps (Homo sapiens) (UniProt P07332). Briefly: Inhibition of human FES assessed as residual activity at 1 uM relative to control.
Sequence of Tyrosine-protein kinase Fes/Fps (Homo sapiens) (P07332 whole entry): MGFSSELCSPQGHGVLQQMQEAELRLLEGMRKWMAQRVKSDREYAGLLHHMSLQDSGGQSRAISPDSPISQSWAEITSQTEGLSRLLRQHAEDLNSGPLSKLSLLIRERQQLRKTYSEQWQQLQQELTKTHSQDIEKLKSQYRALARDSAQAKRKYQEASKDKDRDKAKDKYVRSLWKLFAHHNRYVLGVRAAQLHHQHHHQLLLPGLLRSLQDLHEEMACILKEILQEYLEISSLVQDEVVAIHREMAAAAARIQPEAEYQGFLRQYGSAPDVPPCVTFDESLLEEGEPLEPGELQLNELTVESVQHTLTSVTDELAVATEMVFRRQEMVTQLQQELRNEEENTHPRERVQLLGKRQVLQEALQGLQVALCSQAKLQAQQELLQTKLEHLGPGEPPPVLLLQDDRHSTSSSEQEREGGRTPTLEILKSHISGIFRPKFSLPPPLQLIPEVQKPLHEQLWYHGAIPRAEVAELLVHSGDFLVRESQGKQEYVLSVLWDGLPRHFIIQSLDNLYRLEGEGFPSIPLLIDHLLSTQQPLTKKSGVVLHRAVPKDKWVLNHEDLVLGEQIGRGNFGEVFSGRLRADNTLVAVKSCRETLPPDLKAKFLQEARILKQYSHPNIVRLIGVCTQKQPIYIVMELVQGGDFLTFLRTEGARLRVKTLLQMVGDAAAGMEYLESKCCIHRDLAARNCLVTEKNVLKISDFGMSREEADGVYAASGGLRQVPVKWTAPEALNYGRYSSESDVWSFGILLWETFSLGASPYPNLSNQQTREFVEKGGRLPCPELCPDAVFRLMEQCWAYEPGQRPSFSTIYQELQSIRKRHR
As for `COc1ccc(-c2nc3cc(-c4csc(C(=O)NCCC(C)C)c4)cnc3[nH]2)cc1`, the Activity was determined as 92%.
Still for that read-out and setting: as for `COc1ccc(-c2nc3cc(-c4csc(C(=O)NCC(C)(C)C)c4)cnc3[nH]2)cc1`, the figure is 85%; as for `COc1ccc(-c2nc3cc(-c4csc(C(=O)NCC(C)C)c4)cnc3[nH]2)cc1`, 92%.

Another test deals with Serine/threonine-protein kinase PLK1 (Homo sapiens) (UniProt P53350). Description: Inhibition of human PLK1 assessed as residual activity at 1 uM relative to control.
Sequence of Serine/threonine-protein kinase PLK1 (Homo sapiens) (P53350 whole entry): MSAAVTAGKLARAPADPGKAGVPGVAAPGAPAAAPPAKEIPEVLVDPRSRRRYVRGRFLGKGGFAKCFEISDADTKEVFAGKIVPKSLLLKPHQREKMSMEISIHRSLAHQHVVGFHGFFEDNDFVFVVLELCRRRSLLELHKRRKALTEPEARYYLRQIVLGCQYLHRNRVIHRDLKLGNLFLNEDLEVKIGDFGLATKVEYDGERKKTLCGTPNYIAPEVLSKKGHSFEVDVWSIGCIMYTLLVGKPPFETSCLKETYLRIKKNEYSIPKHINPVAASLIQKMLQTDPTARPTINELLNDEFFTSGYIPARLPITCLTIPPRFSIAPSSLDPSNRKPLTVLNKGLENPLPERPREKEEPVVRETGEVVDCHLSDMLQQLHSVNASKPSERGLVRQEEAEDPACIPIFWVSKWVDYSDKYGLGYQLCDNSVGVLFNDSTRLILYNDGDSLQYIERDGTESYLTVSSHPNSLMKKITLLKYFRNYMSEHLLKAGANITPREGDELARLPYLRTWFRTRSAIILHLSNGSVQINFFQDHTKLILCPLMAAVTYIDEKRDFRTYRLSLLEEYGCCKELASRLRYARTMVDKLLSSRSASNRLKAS
In the case of `COc1ccc(-c2nc3cc(-c4csc(C(=O)NCCC(C)C)c4)cnc3[nH]2)cc1`, the Activity came to 112%.
The same measure, in the same setting: as for `COc1ccc(-c2nc3cc(-c4csc(C(=O)NCC(C)(C)C)c4)cnc3[nH]2)cc1`, the figure is 110%; as for `COc1ccc(-c2nc3cc(-c4csc(C(=O)NCC(C)C)c4)cnc3[nH]2)cc1`, 105%.

The target of the next test is MAP kinase-interacting serine/threonine-protein kinase 2 (Homo sapiens) (UniProt Q9HBH9). Description: Inhibition of human MNK2 assessed as residual activity at 1 uM relative to control.
Turning to `COc1ccc(-c2nc3cc(-c4csc(C(=O)NCCC(C)C)c4)cnc3[nH]2)cc1`, the Activity came out at 1%.
Take `COc1ccc(-c2nc3cc(-c4csc(C(=O)NCC(C)(C)C)c4)cnc3[nH]2)cc1`: the Activity is 5%.
The same measure, in the same setting: as for `COc1ccc(-c2nc3cc(-c4csc(C(=O)NCC(C)C)c4)cnc3[nH]2)cc1`, the figure is 4%.

Source of the values: ChEMBL document CHEMBL3124838, “Discovery of 6-aryl-azabenzimidazoles that inhibit the TBK1/IKK-ε kinases” (Bioorg Med Chem Lett, 2014).
